Measured values reported in ChEMBL document CHEMBL3044556, “Managing weeds with drip-applied herbicides in tomato” (2008).

Legend:
Assay type in all cases: functional
Boerhavia erecta [1] = assay: Pre-emergence herbicidal activity against Boerhavia erecta in tomato field assessed as increase in extra-large fruit weight at 1.14 kg/ha applied through drip lines/backpack-spray on week 3 to 4 before transplanting relative to untreated control
Portulaca oleracea [2] = assay: Pre-emergence herbicidal activity against Portulaca oleracea in tomato field assessed as number of weeds at 1.14 kg/ha applied through drip lines/backpack-spray on week 3 to 4 before transplanting measured 7 weeks after treatment (reference value: 9 plants/m2)
Trianthema [3] = assay: Pre-emergence herbicidal activity against Trianthema spp. in tomato field assessed as number of weeds at 1.14 kg/ha applied through drip lines/backpack-spray on week 3 to 4 before transplanting measured 7 weeks after treatment (reference value: 9 plants/m2)
Corynandra viscosa [4] = assay: Pre-emergence herbicidal activity against Cleome viscosa in tomato field assessed as number of weeds at 1.14 kg/ha applied through drip lines/backpack-spray on week 3 to 4 before transplanting measured 12 weeks after treatment (reference value: 9 plants/m2)
Amaranthus dubius [5] = assay: Pre-emergence herbicidal activity against Amaranthus dubius in tomato field assessed as number of weeds at 1.14 kg/ha applied through drip lines/backpack-spray on week 3 to 4 before transplanting measured 7 weeks after treatment (reference value: 9 plants/m2)
Cyperus [6] = assay: Pre-emergence herbicidal activity against Cyperus in tomato field assessed as number of weeds at 1.14 kg/ha applied through drip lines/backpack-spray on week 3 to 4 before transplanting measured 12 weeks after treatment (reference value: 5 plants/m2)
Poaceae [7] = assay: Pre-emergence herbicidal activity against Poaceae (grass family) in tomato field assessed as number of weeds at 1.14 kg/ha applied through drip lines/backpack-spray on week 3 to 4 before transplanting measured 7 weeks after treatment (reference value: 6 plants/m2)
Echinochloa colona [8] = assay: Pre-emergence herbicidal activity against Echinochloa colona in tomato field assessed as increase in extra-large fruit weight at 1.14 kg/ha applied through drip lines/backpack-spray on week 3 to 4 before transplanting relative to untreated control
Amaranthus dubius [9] = assay: Pre-emergence herbicidal activity against Amaranthus dubius in tomato field assessed as increase in extra-large fruit weight at 1.14 kg/ha applied through drip lines/backpack-spray on week 3 to 4 before transplanting relative to untreated control
Echinochloa colona [10] = assay: Pre-emergence herbicidal activity against Echinochloa colona in tomato field assessed as number of weeds at 1.14 kg/ha applied through drip lines/backpack-spray on week 3 to 4 before transplanting measured 7 weeks after treatment (reference value: 9 plants/m2)
Digitaria [11] = assay: Pre-emergence herbicidal activity against Digitaria spp. in tomato field assessed as increase in extra-large fruit weight at 1.14 kg/ha applied through drip lines/backpack-spray on week 3 to 4 before transplanting relative to untreated control
Eleusine indica [12] = assay: Pre-emergence herbicidal activity against Eleusine indica in tomato field assessed as increase in extra-large fruit weight at 1.14 kg/ha applied through drip lines/backpack-spray on week 3 to 4 before transplanting relative to untreated control
Eleusine indica [13] = assay: Pre-emergence herbicidal activity against Eleusine indica in tomato field assessed as number of weeds at 1.14 kg/ha applied through drip lines/backpack-spray on week 3 to 4 before transplanting measured 7 weeks after treatment (reference value: 9 plants/m2)
Digitaria [14] = assay: Pre-emergence herbicidal activity against Digitaria spp. in tomato field assessed as number of weeds at 1.14 kg/ha applied through drip lines/backpack-spray on week 3 to 4 before transplanting measured 12 weeks after treatment (reference value: 9 plants/m2)
Digitaria [15] = assay: Pre-emergence herbicidal activity against Digitaria spp. in tomato field assessed as number of weeds at 1.14 kg/ha applied through drip lines/backpack-spray on week 3 to 4 before transplanting measured 7 weeks after treatment (reference value: 9 plants/m2)
Boerhavia erecta [16] = assay: Pre-emergence herbicidal activity against Boerhavia erecta in tomato field assessed as number of weeds at 1.14 kg/ha applied through drip lines/backpack-spray on week 3 to 4 before transplanting measured 7 weeks after treatment (reference value: 9 plants/m2)
Portulaca oleracea [17] = assay: Pre-emergence herbicidal activity against Portulaca oleracea in tomato field assessed as number of weeds at 1.14 kg/ha applied through drip lines/backpack-spray on week 3 to 4 before transplanting measured 12 weeks after treatment (reference value: 9 plants/m2)
Eleusine indica [18] = assay: Pre-emergence herbicidal activity against Eleusine indica in tomato field assessed as total number of fruits at 1.14 kg/ha applied through drip lines/backpack-spray on week 3 to 4 before transplanting (reference value: 49.5 x 10 '3 ha); conditions: pooled result: one value given for 8 cell lines, strains, targets or settings
Trianthema [19] = assay: Pre-emergence herbicidal activity against Trianthema spp. in tomato field assessed as increase in extra-large fruit weight at 1.14 kg/ha applied through drip lines/backpack-spray on week 3 to 4 before transplanting relative to untreated control
Eleusine indica [20] = assay: Pre-emergence herbicidal activity against Eleusine indica in tomato field assessed as number of weeds at 1.14 kg/ha applied through drip lines/backpack-spray on week 3 to 4 before transplanting measured 12 weeks after treatment (reference value: 9 plants/m2)
Corynandra viscosa [21] = assay: Pre-emergence herbicidal activity against Cleome viscosa in tomato field assessed as number of weeds at 1.14 kg/ha applied through drip lines/backpack-spray on week 3 to 4 before transplanting measured 7 weeks after treatment (reference value: 9 plants/m2)
Echinochloa colona [22] = assay: Pre-emergence herbicidal activity against Echinochloa colona in tomato field assessed as number of weeds at 1.14 kg/ha applied through drip lines/backpack-spray on week 3 to 4 before transplanting measured 12 weeks after treatment (reference value: 9 plants/m2)
Portulaca oleracea [23] = assay: Pre-emergence herbicidal activity against Portulaca oleracea in tomato field assessed as increase in extra-large fruit weight at 1.14 kg/ha applied through drip lines/backpack-spray on week 3 to 4 before transplanting relative to untreated control
Poaceae [24] = assay: Pre-emergence herbicidal activity against Poaceae (grass family) in tomato field assessed as number of weeds at 1.14 kg/ha applied through drip lines/backpack-spray on week 3 to 4 before transplanting measured 12 weeks after treatment (reference value: 8 plants/m2)
Cyperus [25] = assay: Pre-emergence herbicidal activity against Cyperus in tomato field assessed as number of weeds at 1.14 kg/ha applied through drip lines/backpack-spray on week 3 to 4 before transplanting measured 7 weeks after treatment (reference value: 3 plants/m2)
Eleusine indica [26] = assay: Pre-emergence herbicidal activity against Eleusine indica in tomato field assessed as increase in total marketable weight at 1.14 kg/ha applied through drip lines/backpack-spray on week 3 to 4 before transplanting relative to untreated control; conditions: pooled result: one value given for 8 cell lines, strains, targets or settings
Boerhavia erecta [27] = assay: Pre-emergence herbicidal activity against Boerhavia erecta in tomato field assessed as number of weeds at 1.14 kg/ha applied through drip lines/backpack-spray on week 3 to 4 before transplanting measured 12 weeks after treatment (reference value: 9 plants/m2)
Trianthema [28] = assay: Pre-emergence herbicidal activity against Trianthema spp. in tomato field assessed as number of extra-large fruits at 1.14 kg/ha applied through drip lines/backpack-spray on week 3 to 4 before transplanting (reference value: 21.3 x 10 '3 ha); conditions: pooled result: one value given for 8 cell lines, strains, targets or settings
Trianthema [29] = assay: Pre-emergence herbicidal activity against Trianthema spp. in tomato field assessed as number of weeds at 1.14 kg/ha applied through drip lines/backpack-spray on week 3 to 4 before transplanting measured 12 weeks after treatment (reference value: 9 plants/m2)
Amaranthus dubius [30] = assay: Pre-emergence herbicidal activity against Amaranthus dubius in tomato field assessed as number of weeds at 1.14 kg/ha applied through drip lines/backpack-spray on week 3 to 4 before transplanting measured 12 weeks after treatment (reference value: 9 plants/m2)
Corynandra viscosa [31] = assay: Pre-emergence herbicidal activity against Cleome viscosa in tomato field assessed as increase in extra-large fruit weight at 1.14 kg/ha applied through drip lines/backpack-spray on week 3 to 4 before transplanting relative to untreated control

## CCc1cccc(C)c1N(C(=O)CCl)[C@@H](C)COC [S-METOLACHLOR]
Boerhavia erecta [1]
  Activity: 75%
Portulaca oleracea [2]
  Activity: 3 /m2
Trianthema [3]
  Activity: 3 /m2
Corynandra viscosa [4]
  Activity: 2 /m2
Amaranthus dubius [5]
  Activity: 3 /m2
Cyperus [6]
  Activity: 9 /m2
Poaceae [7]
  Activity: 0 /m2
Echinochloa colona [8]
  Activity: 75%
Amaranthus dubius [9]
  Activity: 75%
Echinochloa colona [10]
  Activity: 3 /m2
Digitaria [11]
  Activity: 75%
Eleusine indica [12]
  Activity: 75%
Eleusine indica [13]
  Activity: 3 /m2
Digitaria [14]
  Activity: 2 /m2
Digitaria [15]
  Activity: 3 /m2
Boerhavia erecta [16]
  Activity: 3 /m2
Portulaca oleracea [17]
  Activity: 2 /m2
Eleusine indica [18]
  fruit count: 70.8 10^3 fruits/ha
Trianthema [19]
  Activity: 75%
Eleusine indica [20]
  Activity: 2 /m2
Corynandra viscosa [21]
  Activity: 3 /m2
Echinochloa colona [22]
  Activity: 2 /m2
Portulaca oleracea [23]
  Activity: 75%
Poaceae [24]
  Activity: 3 /m2
Cyperus [25]
  Activity: 2 /m2
Eleusine indica [26]
  Activity: 57%
Boerhavia erecta [27]
  Activity: 2 /m2
Trianthema [28]
  Activity: 35 10^3 fruits/ha
Trianthema [29]
  Activity: 2 /m2
Amaranthus dubius [30]
  Activity: 2 /m2
Corynandra viscosa [31]
  Activity: 75%
